Experimental data as given in patent publication EP1905824A1, “A […] AND A METHOD FOR CELL […]” (Olympus Corporation, priority 2005, dated 2006).

Tests used:
Format in all cases: cell-based, human
[1] = test system: MCF7 cell lines (clones) in which the ERE-GFP reporter gene having a sable GFP as the reporter was stably introduced; experiment: GFP protein induction with/without estrogen (E2), stable-GFP reporter clones; conditions: E2 10 nM, two days
ERE-GFP-E10 cell line [2] = experiment: Estrogen signal response assessment (GFP expression, fluorescence microscope / flow cytometer); conditions: E2 10 nM, two days; compared with E2-untreated (low GFP expression level)
[3] = test system: cell line in which only the pd2EGFP-1 vector having no ERE was stably introduced (pdE2-GFP-4); experiment: Estrogen signal response assessment (GFP expression), control cell line without ERE; conditions: E2 10 nM, two days; regardless of E2-treated/untreated
ERE-GFP-E10 cell line [4] = experiment: GFP expressing cell counting after addition of E2
ERE-GFP-E10 cell line [5] = experiment: MTT assay for living cell counts after addition of E2; conditions: E2 0 to 300 pM; four days; absorbance at 560 nm
[6] = test system: breast cancer tissue-derived adipose stromal cell and ERE-GFP-E10 cell; experiment: Co-culture of breast cancer tissue-derived adipose stromal cell and ERE-GFP-E10, detection of estrogen signal; set-up: dose or concentration left out as unconfirmed; conditions: testosterone, four days co-culture; compared with no addition of androgen; three breast cancer cases
[7] = E2 3 pM or 1 nM, Day 1 to Day 4, regardless of the amount of E2 added

| SMILES | GFP expression positive cell rate (%) E2-added group ([1]; clone #16, E2-free group 85) [%] | GFP expression positive cell rate (%) E2-added group ([1]; clone #19, E2-free group 32) [%] | GFP expression positive cell rate (%) E2-added group ([1]; clone #21, E2-free group 5) [%] | GFP expression positive cell rate (%) E2-added group ([1]; clone #28, E2-free group 37) [%] | GFP expression positive cell rate (%) E2-added group ([1]; clone #29, E2-free group 77) [%] | GFP expression positive cell rate (%) E2-added group ([1]; clone #37, E2-free group 83) [%] | GFP expression level when E2-treated (ERE-GFP-E10 cell line [2]) | GFP expression [3] | E2 concentration at which GFP expression induction was maximized (ERE-GFP-E10 cell line [4]; E2 0, 1, 3, 10, 30, 100, 300 pM, four days) [pM] | day from which GFP expression was observed after the addition of E2 (ERE-GFP-E10 cell line [4]; [7]) [days] | day on which GFP expression positive cell count was maximized (ERE-GFP-E10 cell line [4]; [7]) [days] | minimal effective concentration (ERE-GFP-E10 cell line [4]; Homo sapiens, 96 h, E2 0, 1, 3, 10, 30, 100, 300 pM, four days, read-out: E2 concentration at which a significant level of GFP expression induction was detected) [µM] | living cell count (ERE-GFP-E10 cell line [5]) | GFP positive cell rate in the ERE-GFP-E10 cell [6] |
| --- | --- | --- | --- | --- | --- | --- | --- | --- | --- | --- | --- | --- | --- | --- |
| C[C@]12CC[C@@H]3c4ccc(O)cc4CC[C@H]3[C@@H]1CC[C@@H]2O [E2, 17 β estradiol] | 88 | 73 | 8 | 41 | 83 | 84 | GFP well induced, having a high expression level | no GFP expression | 30 | 1 | 2 | 3e-06 | increased dependently on the added E2 concentration | – |
| C[C@]12CC[C@H]3[C@@H](CCC4=CC(=O)CC[C@@]43C)[C@@H]1CC[C@@H]2O [testosterone] | – | – | – | – | – | – | – | – | – | – | – | – | – | significantly increased |
